Laboratory results from ChEMBL document CHEMBL1143476, “Synthesis and biological evaluation of 1,3-diphenylprop-2-yn-1-ones as dual inhibitors of cyclooxygenases and lipoxygenases” (Bioorg Med Chem Lett, 2005).
pIC50: −log10 of the molar value.

Experiments:
[1] = target: T1, Seed linoleate 13S-lipoxygenase-1 (Glycine max, UniProt P08170)
T1 sequence (P08170 whole entry): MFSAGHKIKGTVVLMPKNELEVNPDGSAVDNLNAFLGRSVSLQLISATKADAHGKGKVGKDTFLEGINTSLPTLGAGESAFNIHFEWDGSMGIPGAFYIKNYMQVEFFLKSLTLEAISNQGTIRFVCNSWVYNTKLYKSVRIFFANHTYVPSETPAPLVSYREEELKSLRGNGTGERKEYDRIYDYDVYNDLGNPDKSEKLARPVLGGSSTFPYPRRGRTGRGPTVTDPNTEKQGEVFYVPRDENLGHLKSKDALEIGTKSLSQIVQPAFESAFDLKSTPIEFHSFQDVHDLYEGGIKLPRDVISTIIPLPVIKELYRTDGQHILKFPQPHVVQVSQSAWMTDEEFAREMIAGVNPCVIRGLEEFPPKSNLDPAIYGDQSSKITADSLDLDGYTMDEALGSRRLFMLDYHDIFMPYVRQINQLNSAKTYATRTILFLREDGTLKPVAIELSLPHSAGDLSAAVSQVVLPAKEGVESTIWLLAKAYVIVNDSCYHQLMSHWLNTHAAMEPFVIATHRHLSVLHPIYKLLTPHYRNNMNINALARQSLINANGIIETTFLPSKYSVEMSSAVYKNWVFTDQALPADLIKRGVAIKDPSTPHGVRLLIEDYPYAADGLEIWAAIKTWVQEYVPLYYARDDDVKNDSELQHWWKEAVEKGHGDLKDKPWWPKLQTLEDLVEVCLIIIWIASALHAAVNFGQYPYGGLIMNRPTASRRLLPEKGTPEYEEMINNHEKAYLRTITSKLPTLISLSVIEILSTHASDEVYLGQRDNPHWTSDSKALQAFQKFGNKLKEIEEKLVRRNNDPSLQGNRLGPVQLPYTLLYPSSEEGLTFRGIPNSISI
Description: In vitro inhibitory activity against 15-lipoxygenase obtained from soybean

[2] = target: T2, Prostaglandin G/H synthase 1 (Ovis aries, UniProt P05979); assay: In vitro inhibitory activity against ovine cyclooxygenase 1
T2 sequence (P05979 whole entry): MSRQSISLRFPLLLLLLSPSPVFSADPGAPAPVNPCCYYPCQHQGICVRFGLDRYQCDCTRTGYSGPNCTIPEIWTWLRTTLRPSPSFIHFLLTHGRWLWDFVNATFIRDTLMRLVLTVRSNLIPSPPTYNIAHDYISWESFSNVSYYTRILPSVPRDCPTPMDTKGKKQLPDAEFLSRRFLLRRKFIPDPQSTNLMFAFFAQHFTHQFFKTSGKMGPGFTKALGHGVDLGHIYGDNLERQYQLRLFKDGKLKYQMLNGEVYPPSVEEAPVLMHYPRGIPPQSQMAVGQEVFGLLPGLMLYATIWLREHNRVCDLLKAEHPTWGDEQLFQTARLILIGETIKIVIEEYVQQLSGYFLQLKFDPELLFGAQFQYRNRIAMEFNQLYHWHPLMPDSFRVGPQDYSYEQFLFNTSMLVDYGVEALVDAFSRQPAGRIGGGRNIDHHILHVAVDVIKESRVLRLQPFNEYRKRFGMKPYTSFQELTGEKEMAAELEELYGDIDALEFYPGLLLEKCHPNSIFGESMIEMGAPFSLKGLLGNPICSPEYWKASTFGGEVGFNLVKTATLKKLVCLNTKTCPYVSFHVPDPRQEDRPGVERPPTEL

[3] = target: T1, Seed linoleate 13S-lipoxygenase-1; remark: listed apart in the source
Description: In vitro inhibitory activity against 5-lipoxygenase obtained from potato

Row | Compound | pIC50 [1] | pIC50 [2] | pIC50 [3]
1 | CS(=O)(=O)c1ccc(C#CC(=O)c2cccc(O)c2)cc1 | 6.30 | < 4.00 | 6.52
2 | COc1cc(C(=O)C#Cc2ccc(S(C)(=O)=O)cc2)ccc1O | 7.00 | 5.96 | < 5.00
3 | COc1ccc(C(=O)C#Cc2ccc(S(C)(=O)=O)cc2)cc1O | 6.52 | 6.00 | < 5.00
4 | CS(=O)(=O)c1ccc(C#CC(=O)c2ccc(C#N)cc2)cc1 | – | 4.50 | –
5 | CS(=O)(=O)c1ccc(C#CC(=O)c2ccc(F)cc2)cc1 | 6.00 | 4.52 | < 5.00
6 | CS(=O)(=O)c1ccc(C#CC(=O)c2ccc(O)cc2)cc1 | 6.49 | 5.46 | 6.52
7 | Cc1ccc(C(=O)C#Cc2ccc(S(C)(=O)=O)cc2)cc1 | < 5.00 | < 4.00 | < 5.00
8 | COc1ccc(C(=O)C#Cc2ccc(S(C)(=O)=O)cc2)cc1 | 5.46 | – | < 5.00
9 | COc1cc(C(=O)C#Cc2ccc(S(C)(=O)=O)cc2)cc(OC)c1OC | < 5.00 | < 4.00 | 5.15
10 | CS(=O)(=O)c1ccc(C#CC(=O)c2ccccc2)cc1 | < 5.00 | 6.00 | –
11 | O=c1cc(-c2ccc(O)c(O)c2)oc2cc(O)cc(O)c12 [LUTEOLIN] | 5.49 | – | –
12 | CS(=O)(=O)c1ccc(C#CC(=O)c2ccc(F)c(F)c2)cc1 | 5.49 | 5.51 | 6.40
13 | COc1cccc(C(=O)C#Cc2ccc(S(C)(=O)=O)cc2)c1 | < 5.00 | < 4.00 | 5.05
14 | CS(=O)(=O)c1ccc(C#CC(=O)c2ccc(C(F)(F)F)cc2)cc1 | < 5.00 | 5.51 | < 5.00
